Tested on: AGE-BSA cross-linked to rat tail tendon collagen (type 1)
Assay: Reversing collagen cross-links: AGE-BSA cross-linked to rat tail tendon collagen-coated plates
Assay type: biochemical
Settings: 3 mM test compound, overnight at 37° C.
Procedure: In a further evaluation of the ability of compounds of the present invention to reverse AGE cross-links between a circulating protein and collagen, AGE-BSA was cross-linked to rat tail tendon collagen (type 1)-coated 96 well microtiter plates, and reversal of cross-linking was determined.
AGE-BSA preparation. AGE-BSA is prepared by incubation of a solution of BSA (400 mg/ml) in 0.4 M sodium phosphate buffer pH 7.4 with an equal volume of 400 mM glucose solution in the same buffer at 37° C. for 12 weeks. The pH of the incubation mixture is monitored weekly and adjusted to pH 7.4 if necessary. After 12 weeks, the AGE-BSA solution is dialyzed against PBS for 48 hours with 4 buffer changes. Protein concentration is determined by the micro-Lowry method.
Assay protocol. […] AGE-BSA was diluted in PBS to a concentration required to obtain maximum cross-linking as determined in a preliminary experiment. […]
Test compounds are dissolved in PBS and pH adjusted to 7.0 if necessary. […] The test compounds and PBS are also added to triplicate wells incubated with BSA, to obtain the blank readings. […]
The plate is washed with PBS-Tween, […] of Rabbit-anti-BSA antibody (1 to 4000 in PBS) is added to each well and the plate is incubated at room temperature for 60 min. […] Optical density is read at 410 nm with the sample filter set to “1” and the reference filter set to “5” on the Dynatech ELISA plate reader. […]

| SMILES | reversal of AGE cross-links (percent breaking, decrease in OD of TTC-AGE-BSA wells vs PBS) [%] |
| --- | --- |
| O=C(C[n+]1ccsc1)c1cc(-c2ccccc2)no1.[Br-] [3-[2-(3-phenyl-5-isoxazolyl)-2-oxoethyl]-thiazolium bromide] | 15 |

Tested on: IgG bound to the surface of RBC (AGE cross-links)
Assay: Reversing AGE cross-links: RBC-IgG assay (IgG bound to RBC from streptozotocin-diabetic rats)
Assay type: cell-based, rat
Settings: RBC of streptozotocin-diabetic rats incubated with test compound in PBS overnight at 37° C.; concentration not given
Procedure: The activity of the compounds of the present invention to reverse AGE cross-links was evaluated in an in-vitro model, as follows. Blood was collected from streptozotocin-diabetic rats (6 to 8 wk diabetic) in heparinized tubes, centrifuged at 2500×g for 15 min. at […], and the plasma and buffy-coat layers aspirated off. The RBC were washed with PBS (ca. 5 ml PBS per ml blood) three times. Test compounds were dissolved in PBS and the pH adjusted to 7.0, if necessary. Two hundred microliters of washed RBC were added to 2 mL of test compound solution, and the mixture was incubated overnight at 37° C. […] After the overnight incubation, the reaction mixtures were centrifuged and the RBC pellets were washed three times with PBS, followed by diluting 1:30 in PBS. Immunoglobulin G (IgG) bound to the surface of the washed RBCs was then determined. Assay for RBC-IgG: The assay is performed in a Multiscreen-HA, 0.45 μm cellulose mixed esters membrane-sealed 96 well plate (Millipore MAHAS45). The membranes are first wet by filling the wells with 100 uL PBS, and the wells emptied by applying a vacuum to the Millititer vacuum manifold. Three hundred uL of Superblock (pre-warmed to 37° C.) is then added to each well and incubated at 37° C. for one hour. The Superblock is then removed from the wells by application of vacuum, then the wells are washed once with 300 ul of PBS-Tween (0.05%) and three times with PBS. The vacuum is then turned off. One hundred μl of PBS is then added to each well. Each RBC sample is gently vortexed, and 50 uL pipetted into the wells, in sextuplicate. The wells labeled A1-A3 are left for a reagent blank and wells A4-A6 reserved for an antibody blank. Vacuum is then applied to remove the buffer and the RBCs are washed once with PBS. Alkaline phosphatase-labeled rabbit-anti-rat IgG is diluted 1 to 25000 in PBS, and 50 μl is added to triplicate wells of each sample. PBS alone is added to the other three wells of each sample. These will serve as sample blanks to adjust for any endogenous alkaline phosphatase activity. The samples are allowed to stand at room temperature for two hours. The solution is then removed by application of vacuum and the red blood cells are washed with PBS-Tween twice, PBS twice and with TBS twice. The bottom of the plate is rinsed with distilled water and blotted dry with paper towels. To each well is then added 100 μl of p-nitrophenyl phosphate substrate (1 mg/ml in diethanolamine buffer pH 9.5), and the color is allowed to develop for two hours at 37° C. The solutions in each well are then transferred to a 96 well microtiter plate inside the vacuum manifold. One hundred μl of PBS to each well and vacuum applied again to transfer any remaining solution into the microtiter plate. The OD at 410 nm is then read in a Dynatech Plate reader (Sample filter 1 and Ref. filter 4). For data analysis, breaking activity (percent reversal) is expressed as the percent decrease in O.D. caused by incubation of RBC with the test compound compared to RBC incubated in PBS alone. Using the above assay, the following data was generated on the compounds of the present invention: […]

| SMILES | Percent reversal (breaking activity: percent decrease in O.D. vs RBC incubated in PBS alone) [%] |
| --- | --- |
| Cc1c(CCO)sc[n+]1CC(=O)c1cccs1.[Br-] [3-(2-(2-thienyl)-2-oxoethyl)-4-methyl-5-hydroxyethylthiazolium bromide] | 24 |
| Cc1sc[n+](CC(=O)c2ccccn2)c1C.[Br-] [3-(2-(2-pyridinyl)-2-oxoethyl)-4,5-dimethyl-thiazolium bromide] | 27 |
| O=C(C[n+]1ccsc1)c1cc(-c2ccccc2)no1.[Br-] [3-[2-(3-phenyl-5-isoxazolyl)-2-oxoethyl]-thiazolium bromide] | 38 |
| Cc1sc[n+](CC(=O)N2CC(C)OC(C)C2)c1C.[Br-] (stereo not drawn) [3-[2-(2,6-dimethyl-4-morpholinyl)-2-oxoethyl]-4,5-dimethylthiazolium bromide] | 38 |
| Cc1sc[n+](CC(=O)c2ccc3c(c2)CCC(=O)N3)c1C.[Br-] [3-[2-(2-oxo-1,2,3,4-tetrahydro-6-quinolinyl)-2-oxoethyl]-4,5-dimethylthiazolium bromide] | 84 |
| Cc1sc[n+](CC(=O)N2CCC(Cc3ccccc3)CC2)c1C.[Cl-] [3-[2-(4-benzyl-1-piperidinyl)-2-oxoethyl]-4,5-dimethylthiazolium chloride] | 70 |
| Cc1sc[n+](CC(=O)N2CCCCC2)c1C.[Br-] [3-(2-(1-piperidinyl)-2-oxoethyl)-4,5-dimethylthiazolium bromide] | 37 |
| Cc1sc[n+](CC(=O)N2CCCC2)c1C.[Br-] [3-(2-(1-pyrrolidinyl)-2-oxoethyl)-4,5-dimethyl-thiazolium bromide] | 63 |
| Cc1sc[n+](CC(=O)c2cccs2)c1C.[Br-] [3-(2-(2-thienyl)-2-oxoethyl)-4,5-dimethyl-thiazolium bromide] | 53 |
| Cc1sc[n+](CC(=O)N2CCSCC2)c1C.[Br-] [3-(2-(4-thiomorpholinyl)-2-oxoethyl)-4,5-dimethylthiazolium bromide] | 47 |
| Cc1sc[n+](CC(=O)c2ccco2)c1C.[Br-] [3-(2-(2-furanyl)-2-oxoethyl)-4,5-dimethylthiazolium bromide] | 76 |
